Laboratory results as given in patent US20010055541A1, “Porous material disinfection method” (priority 2000, published 2001).

Key:
Escherichia coli = Escherichia coli in 19 minutes from raw waste water; cited from earlier work
Poliovirus type I = Poliovirus type I in 9 minutes from activated sludge effluent; cited from earlier work
Candida tropicalis = Candida tropicalis in 0.30 minutes from ozone-demand free water; cited from earlier work
Naegleria gruberi = Naegleria gruberi in 1.1 minutes from ozone-demand free phosphate buffer solution; cited from earlier work
[1] = test system: Bacillus stearothermophilus (ATCC 7953); assay: Resistance of six organisms to sterilization with ozone gas (Example I); details: six organisms compared, cell density 10^4-10^7, minimum of three runs
[2] = test system: Bacillus subtilis v. globigii spores; details: within 1.5-2 minutes, water purged with 3% ozone by weight; cited from earlier work
[3] = test system: human immunodeficiency virus (HIV); details: non-toxic concentration of 4 μg ozone per ml of serum; cited from earlier work

In the case of `O=[O+][O-]` [ozone], the “ozone concentration reported for a 99% reduction” value (Escherichia coli) is given as 2.2 mg/L, the “ozone concentration reported for a 99% reduction” value (Poliovirus type I) is given as 0.2 mg/L and the “ozone concentration reported for a 99% reduction” value (Candida tropicalis) is given as 0.02 mg/L. The “ozone concentration reported for a 99% reduction” value (Naegleria gruberi) was 1.2 mg/L, the “resistance of organism to ozone exposure (ability to maintain viability)” value [1] was “most resistant organism” and the “log reduction of bacterial spores” value [2] was “four-log reduction”. The “log reduction in the infectious titer” value [3] was “six-log reduction”.
